The results in this text go back to US12612420B2, “Arginase inhibitors and methods of use thereof” (Molecure S.A., priority 2020, dated 2026).

Test [1] addresses T1, recombinant human arginase 1 (hARG1) (Homo sapiens, UniProt P05089).
T1 construct: made in house; host or cells: E. coli
T1 sequence (P05089 1-322): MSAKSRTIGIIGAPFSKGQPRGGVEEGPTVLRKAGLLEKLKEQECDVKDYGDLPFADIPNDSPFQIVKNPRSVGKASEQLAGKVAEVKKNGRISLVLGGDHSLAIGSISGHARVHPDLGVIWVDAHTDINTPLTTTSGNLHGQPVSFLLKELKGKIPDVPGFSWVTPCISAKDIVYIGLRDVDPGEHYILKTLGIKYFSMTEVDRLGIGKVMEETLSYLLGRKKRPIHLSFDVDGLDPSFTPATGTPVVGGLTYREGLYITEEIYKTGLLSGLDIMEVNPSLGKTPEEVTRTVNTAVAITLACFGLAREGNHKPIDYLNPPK
Kind of test: Human arginase inhibition assay (colorimetric urea detection), arginase 1. The class given is biochemical. Particulars: IC50 class; hydrochloride salts; 1 h at 37° C., pH 7.4, 10 mM L-arginine, 200 μM MnCl2; read-out: Activity Class (ARG I). As to the method:
(§1) Human Arginase Inhibition Assay
(§2) The inhibitory activities of the compounds of the invention were assessed using recombinant human arginases 1 and 2. Both enzymes were biosynthesized using a prokaryotic expression system (E. coli) and purified by fast protein liquid chromatography (FPLC). The compounds were screened in 96-well plates at the total reaction volume of 100 μL. Briefly, recombinant enzymes were incubated with the tested compounds for 1 h at 37° C. in the reaction buffer (100 mM sodium phosphate buffer, 130 mM NaCl, 1 mg/mL BSA, pH 7.4) containing substrate (L-arginine hydrochloride, 10 mM for hARG1 and 20 mM for hARG2) and cofactor (200 μM MnCl2). The assay is based on the detection of urea, which is generated during the conversion of L-arginine into L-omithine catalyzed by ARG1 or ARG2 (Baggio et al. J Pharmacol. Exp. Ther. 1999, 290, 1409-1416). The colorimetrically detectable product was developed by adding a mixture of reagent A (4 mM oPA, 50 mM boric acid, 1 M sulfuric acid, 0.03% Brij-35) and reagent B (4 mM NED, 50 mM boric acid, 1 M sulfuric acid, 0.03% Brij-35) in equal proportions. The absorbance for each well was measured at 515 nm and the enzyme inhibition was calculated. The urea production in the absence of any tested compound was considered as maximal enzyme activity. The absorbance at the absence of arginase (background) was subtracted from all the values. The normalized values were analyzed using GraphPad Prism 7.0 software by plotting inhibition curves and determining the IC50 values.
(§3) The inhibitory activity classes of the hydrochloride salts of the exemplary compounds according to the invention are presented in Table 1

The target of test [2] is T2, recombinant human arginase 2 (hARG2) (Homo sapiens, UniProt P78540).
T2 construct: made in house; host or cells: E. coli
T2 sequence (P78540 23-354): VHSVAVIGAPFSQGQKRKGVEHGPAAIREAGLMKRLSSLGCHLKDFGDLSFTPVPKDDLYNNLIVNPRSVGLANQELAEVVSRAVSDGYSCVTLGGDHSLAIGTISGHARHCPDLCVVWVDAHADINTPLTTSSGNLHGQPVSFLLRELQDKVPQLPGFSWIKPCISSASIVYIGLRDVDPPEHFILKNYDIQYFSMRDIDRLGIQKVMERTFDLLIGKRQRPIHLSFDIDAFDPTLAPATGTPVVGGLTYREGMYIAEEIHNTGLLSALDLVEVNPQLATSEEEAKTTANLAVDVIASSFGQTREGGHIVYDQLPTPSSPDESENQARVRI
Put plainly: Human arginase inhibition assay (colorimetric urea detection), arginase 2. In kind it is biochemical. Conditions: IC50 class; hydrochloride salts; 1 h at 37° C., pH 7.4, 20 mM L-arginine, 200 μM MnCl2; read-out: Activity Class (ARG II). As to the method:
as §1, §2, §3

Test [3] deals with T3, intracellular arginase in macrophages isolated from murine bone marrow (BMDM) (Mus musculus, UniProt Q61176).
T3 construct: endogenous in cells; host or cells: primary bone-marrow-derived macrophages from C57BL/6 mice, cultured with M-CSF, TGF-β and IL-4
T3 sequence (Q61176 1-323): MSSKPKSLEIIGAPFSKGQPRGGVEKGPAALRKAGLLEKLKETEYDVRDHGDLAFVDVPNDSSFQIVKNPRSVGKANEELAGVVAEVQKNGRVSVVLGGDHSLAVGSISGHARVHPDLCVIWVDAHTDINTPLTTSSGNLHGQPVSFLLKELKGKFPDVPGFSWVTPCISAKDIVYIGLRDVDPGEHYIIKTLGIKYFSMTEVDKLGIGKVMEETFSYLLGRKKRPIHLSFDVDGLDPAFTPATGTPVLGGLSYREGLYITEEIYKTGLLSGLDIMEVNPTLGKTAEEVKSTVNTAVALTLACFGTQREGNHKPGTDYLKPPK
Kind of test: Cell-based assay: intracellular arginase in bone marrow derived macrophages (BMDM), urea in culture medium. On the set-up: species or system murine (C57BL/6 mice). Particulars: IC50 class; M2-polarised murine BMDM (M-CSF, TGF-β, IL-4), urea in medium after 24 hours. The procedure:
To illustrate the lower cellular activity of the compounds according to the invention versus arginase inhibitors disclosed in U.S. Ser. No. 10/391,077 B2, the selected examples were tested in cell-based assay using murine primary macrophages. Lower intracellular activity observed for the compounds according to the invention may potentially result in lower hepatotoxicity compared to the arginase inhibitors disclosed in U.S. Ser. No. 10/391,077 B2.
Efficacy of Selected Examples Towards Intracellular Arginase in Macrophages Isolated from Murine Bone Marrow—Bone Marrow Derived Macrophages (BMDM)
Murine bone marrow-derived or peritoneal macrophages comprise a convenient in vitro model that enables differentiation of these cells towards M1 or M2 macrophages and further use for the study.
Materials & Methods: The assay was performed according to modified literature protocol (Pineda-Torra I et al., Methods Mol Biol. 2015; 1339:101-9. Mia S et al., Scand J Immunol. 2014 May; 79(5):305-14). The femurs and tibias were isolated from C57BL/6 mice. Bones were cleaned from all attached tissues by using a sterile swab without affecting the bone structure. The sides of the bones were cut off and flush with cold sterile PBS by using 26-G needle S into a 50 mL sterile tube with a cell strainer (Falcon™, Cat. No. U00149), until the bone cavity appeared white. Then, the cells were centrifuged (5 min at 500×G, 4° C.), washed twice with PBS and counted. Cells were plated in Petri dish in density of 1×10^6/mL and cultured in DMEM (Gibco, Cat. No. 31331-029) with 10% FBS, 1% pen-strep and 50 ng/mL M-CSF (PeproTech, Cat. No. 315-02), (37° C., 5% CO2). After five days cells were subcultured into P96 plate (BD, Cat. No. 353072) at the density of 64,000 cells/well in medium supplemented with 50 ng/mL M-CSF, 20 ng/mL TGF-β and 30 ng/mL IL-4 (Biomibo Cat. No. 214-1). One day later exemplary compounds (dissolved in PBS) were added in several different concentrations and 24 hours later the level of urea was measured in the culture medium in each well (Jung D et al., Clin Chem. 1975, 21(8):1136-40). The concentration of urea in the absence of any compound was considered as the maximum enzyme activity. The absorbance of cell culture media (background) was subtracted from all the values.
The IC50 values were calculated using GraphPad Prism 7.0. and assigned into the following classes: A=10-100 μM; and B>100 μM.

Where a name gives a salt, the structure may show the parent alone.

Take `CC[C@H](C)[C@H](N)C(=O)NC[C@@H]1CC[C@@H](CCB(O)O)C[C@]1(N)C(=O)O` [Example 10, (1R,2S,5R)-1-Amino-2-(((2S,3S)-2-amino-3-methylpentanamido)methyl)-5-(2-boronoethyl)cyclohexane-1-carboxylic acid dihydrochloride]: the IC50 was 0.001 to 0.099 µM in test [1], more than 0.3 µM in test [2] and more than 100 µM in test [3].
`CC(C)(C)[C@H](N)C(=O)NC[C@@H]1CC[C@@H](CCB(O)O)C[C@]1(N)C(=O)O` [Example 12, (1R,2S,5R)-1-Amino-2-(((S)-2-amino-3,3-dimethylbutanamido)methyl)-5-(2-boronoethyl)cyclohexane-1-carboxylic acid dihydrochloride]: the IC50 in test [1] was 0.001 to 0.099 µM; in test [2], 0.2 to 0.299 µM; in test [3], more than 100 µM.
Consider `N=C(N)NCCC[C@H](N)C(=O)NC[C@@H]1CC[C@@H](CCB(O)O)C[C@]1(N)C(=O)O` [Example 13, (1R,2S,5R)-1-Amino-2-(((S)-2-amino-5-guanidinopentanamido)methyl)-5-(2-boronoethyl)cyclohexane-1-carboxylic acid trihydrochloride], for which the IC50 in test [1] is 0.001 to 0.099 µM; in test [2] it was more than 0.3 µM; in test [3] it was more than 100 µM.
As to `CSCC[C@H](N)C(=O)NC[C@@H]1CC[C@@H](CCB(O)O)C[C@]1(N)C(=O)O` [Example 17, (1R,2S,5R)-1-Amino-2-(((S)-2-amino-4-(methylthio)butanamido)methyl)-5-(2-boronoethyl)cyclohexane-1-carboxylic acid dihydrochloride], the figures for the IC50 in test [1], in test [2] and in test [3] were 0.001 to 0.099 µM, 0.2 to 0.299 µM and 10 to 100 µM, respectively.
